Experiments:
Type in all cases: functional
CCRF-CEM = experiment: Growth inhibition of human CCRF-CEM cells at 10^-5 M incubated for 48 hrs by sulforhodamine B assay; conditions: read-out: GI
HL-60(TB) = experiment: Growth inhibition of human HL-60(TB) cells at 10^-5 M incubated for 48 hrs by sulforhodamine B assay; conditions: HL-60, 48 h, read-out: GI
K562 = experiment: Growth inhibition of human K562 cells at 10^-5 M incubated for 48 hrs by sulforhodamine B assay; conditions: K562, 48 h, read-out: GI
EKVX = experiment: Growth inhibition of human EKVX cells at 10^-5 M incubated for 48 hrs by sulforhodamine B assay; conditions: read-out: GI
HOP-62 = experiment: Growth inhibition of human HOP62 cells at 10^-5 M incubated for 48 hrs by sulforhodamine B assay; conditions: HOP-62, 48 h, read-out: GI
HOP-92 = experiment: Growth inhibition of human HOP92 cells at 10^-5 M incubated for 48 hrs by sulforhodamine B assay; conditions: HOP-92, 48 h, read-out: GI
NCI-H23 = experiment: Growth inhibition of human NCI-H23 cells at 10^-5 M incubated for 48 hrs by sulforhodamine B assay; conditions: NCI-H23, 48 h, read-out: GI
NCI-H460 = experiment: Growth inhibition of human NCI-H460 cells at 10^-5 M incubated for 48 hrs by sulforhodamine B assay; conditions: NCI-H460, 48 h, read-out: GI
NCI-H522 = experiment: Growth inhibition of human NCI-H522 cells at 10^-5 M incubated for 48 hrs by sulforhodamine B assay; conditions: NCI-H522, 48 h, read-out: GI
HCT-116 = experiment: Growth inhibition of human HCT116 cells at 10^-5 M incubated for 48 hrs by sulforhodamine B assay; conditions: HCT-116, 48 h, read-out: GI
HT-29 = experiment: Growth inhibition of human HT-29 cells at 10^-5 M incubated for 48 hrs by sulforhodamine B assay; conditions: HT-29, 48 h, read-out: GI
KM12 = experiment: Growth inhibition of human KM12 cells at 10^-5 M incubated for 48 hrs by sulforhodamine B assay; conditions: KM12, 48 h, read-out: GI
SF-268 = experiment: Growth inhibition of human SF268 cells at 10^-5 M incubated for 48 hrs by sulforhodamine B assay; conditions: SF-268, 48 h, read-out: GI
SF-295 = experiment: Growth inhibition of human SF295 cells at 10^-5 M incubated for 48 hrs by sulforhodamine B assay; conditions: SF-295, 48 h, read-out: GI
SF-539 = experiment: Growth inhibition of human SF539 cells at 10^-5 M incubated for 48 hrs by sulforhodamine B assay; conditions: SF-539, 48 h, read-out: GI
SNB-19 = experiment: Growth inhibition of human SNB19 cells at 10^-5 M incubated for 48 hrs by sulforhodamine B assay; conditions: SNB-19, 48 h, read-out: GI
LOX IMVI = experiment: Growth inhibition of human LOXIMVI cells at 10^-5 M incubated for 48 hrs by sulforhodamine B assay; conditions: read-out: GI
Malme-3M = experiment: Growth inhibition of human MALME-3M cells at 10^-5 M incubated for 48 hrs by sulforhodamine B assay; conditions: read-out: GI
M14 = experiment: Growth inhibition of human M14 cells at 10^-5 M incubated for 48 hrs by sulforhodamine B assay; conditions: M14, 48 h, read-out: GI
MDA-MB-435 = experiment: Growth inhibition of human MDA-MB-435 cells at 10^-5 M incubated for 48 hrs by sulforhodamine B assay; conditions: MDA-MB-435, 48 h, read-out: GI
SK-MEL-2 = experiment: Growth inhibition of human SK-MEL-2 cells at 10^-5 M incubated for 48 hrs by sulforhodamine B assay; conditions: SK-MEL-2, 48 h, read-out: GI
SK-MEL-28 = experiment: Growth inhibition of human SK-MEL-28 cells at 10^-5 M incubated for 48 hrs by sulforhodamine B assay; conditions: SK-MEL-28, 48 h, read-out: GI
UACC-257 = experiment: Growth inhibition of human UACC257 cells at 10^-5 M incubated for 48 hrs by sulforhodamine B assay; conditions: UACC-257, 48 h, read-out: GI
UACC-62 = experiment: Growth inhibition of human UACC62 cells at 10^-5 M incubated for 48 hrs by sulforhodamine B assay; conditions: UACC-62, 48 h, read-out: GI
IGROV-1 = experiment: Growth inhibition of human IGROV1 cells at 10^-5 M incubated for 48 hrs by sulforhodamine B assay; conditions: IGROV-1, 48 h, read-out: GI
OVCAR-4 = experiment: Growth inhibition of human OVCAR4 cells at 10^-5 M incubated for 48 hrs by sulforhodamine B assay; conditions: OVCAR-4, 48 h, read-out: GI
OVCAR-5 = experiment: Growth inhibition of human OVCAR5 cells at 10^-5 M incubated for 48 hrs by sulforhodamine B assay; conditions: OVCAR-5, 48 h, read-out: GI
OVCAR-8 = experiment: Growth inhibition of human OVCAR8 cells at 10^-5 M incubated for 48 hrs by sulforhodamine B assay; conditions: OVCAR-8, 48 h, read-out: GI
SK-OV-3 = experiment: Growth inhibition of human SKOV3 cells at 10^-5 M incubated for 48 hrs by sulforhodamine B assay; conditions: SK-OV-3, 48 h, read-out: GI
786-0 = experiment: Growth inhibition of human 786-0 cells at 10^-5 M incubated for 48 hrs by sulforhodamine B assay; conditions: 786-0, 48 h, read-out: GI
A498 = experiment: Growth inhibition of human A498 cells at 10^-5 M incubated for 48 hrs by sulforhodamine B assay; conditions: A498, 48 h, read-out: GI
ACHN = experiment: Growth inhibition of human ACHN cells at 10^-5 M incubated for 48 hrs by sulforhodamine B assay; conditions: read-out: GI
SN12C = experiment: Growth inhibition of human SN12C cells at 10^-5 M incubated for 48 hrs by sulforhodamine B assay; conditions: read-out: GI
TK-10 = experiment: Growth inhibition of human TK10 cells at 10^-5 M incubated for 48 hrs by sulforhodamine B assay; conditions: TK-10, 48 h, read-out: GI
UO-31 = experiment: Growth inhibition of human UO31 cells at 10^-5 M incubated for 48 hrs by sulforhodamine B assay; conditions: UO-31, 48 h, read-out: GI
PC-3 = experiment: Growth inhibition of human PC3 cells at 10^-5 M incubated for 48 hrs by sulforhodamine B assay; conditions: PC-3, 48 h, read-out: GI
DU-145 = experiment: Growth inhibition of human DU145 cells at 10^-5 M incubated for 48 hrs by sulforhodamine B assay; conditions: DU-145, 48 h, read-out: GI
MCF7 = experiment: Growth inhibition of human MCF7 cells at 10^-5 M incubated for 48 hrs by sulforhodamine B assay; conditions: MCF7, 48 h, read-out: GI
Hs-578T = experiment: Growth inhibition of human Hs 578T cells at 10^-5 M incubated for 48 hrs by sulforhodamine B assay; conditions: read-out: GI

Compound	inhibition of growth at 10 µM (CCRF-CEM) [%]	inhibition of growth at 10 µM (HL-60(TB)) [%]	inhibition of growth at 10 µM (K562) [%]	inhibition of growth at 10 µM (EKVX) [%]	inhibition of growth at 10 µM (HOP-62) [%]	inhibition of growth at 10 µM (HOP-92) [%]	inhibition of growth at 10 µM (NCI-H23) [%]	inhibition of growth at 10 µM (NCI-H460) [%]	inhibition of growth at 10 µM (NCI-H522) [%]	inhibition of growth at 10 µM (HCT-116) [%]	inhibition of growth at 10 µM (HT-29) [%]	inhibition of growth at 10 µM (KM12) [%]	inhibition of growth at 10 µM (SF-268) [%]	inhibition of growth at 10 µM (SF-295) [%]	inhibition of growth at 10 µM (SF-539) [%]	inhibition of growth at 10 µM (SNB-19) [%]	inhibition of growth at 10 µM (LOX IMVI) [%]	inhibition of growth at 10 µM (Malme-3M) [%]	inhibition of growth at 10 µM (M14) [%]	inhibition of growth at 10 µM (MDA-MB-435) [%]	further results
O=C1/C(=C\c2ccccc2O)Sc2ccc(Cl)cc21	-1.92	-1.87	4.83	13.3	5.99	3	11.7	-8.83	5.61	10	-12.2	-0.47	5.86	-6.81	-6.81	-7.92	9.63	4.11	0.22	-5.13	inhibition of growth at 10 µM (SK-MEL-2): 1.25%; inhibition of growth at 10 µM (SK-MEL-28): -14.6%; inhibition of growth at 10 µM (UACC-257): -1.33%; inhibition of growth at 10 µM (UACC-62): 22.3%; inhibition of growth at 10 µM (IGROV-1): 0.45%; inhibition of growth at 10 µM (OVCAR-4): 1.63%; inhibition of growth at 10 µM (OVCAR-5): -0.88%; inhibition of growth at 10 µM (OVCAR-8): 1.53%; inhibition of growth at 10 µM (SK-OV-3): 5.06%; inhibition of growth at 10 µM (786-0): -0.39%; inhibition of growth at 10 µM (A498): 3.49%; inhibition of growth at 10 µM (ACHN): 2.5%; inhibition of growth at 10 µM (SN12C): 5.15%; inhibition of growth at 10 µM (TK-10): -16%; inhibition of growth at 10 µM (UO-31): -16%; inhibition of growth at 10 µM (PC-3): 1.43%; inhibition of growth at 10 µM (DU-145): -12.3%; inhibition of growth at 10 µM (MCF7): -12.3%; inhibition of growth at 10 µM (Hs-578T): 3.91%
O=C1Nc2c(sc3ccc(Cl)cc23)C(c2cccc(Br)c2)N1 (stereo not drawn)	-14.4	7.88	6.28	7.46	22.2	0.42	9.39	-0.32	-0.2	4.12	-7.8	-0.31	0.19	-0.96	-0.96	0.22	-3.37	2.75	1.96	-5.37	inhibition of growth at 10 µM (SK-MEL-2): -9.69%; inhibition of growth at 10 µM (SK-MEL-28): -12.8%; inhibition of growth at 10 µM (UACC-257): -7.95%; inhibition of growth at 10 µM (UACC-62): 8.42%; inhibition of growth at 10 µM (IGROV-1): 20.8%; inhibition of growth at 10 µM (OVCAR-4): -6.24%; inhibition of growth at 10 µM (OVCAR-5): -1.01%; inhibition of growth at 10 µM (OVCAR-8): -2.63%; inhibition of growth at 10 µM (SK-OV-3): 19.7%; inhibition of growth at 10 µM (786-0): -1.2%; inhibition of growth at 10 µM (A498): -8.2%; inhibition of growth at 10 µM (ACHN): 5.37%; inhibition of growth at 10 µM (SN12C): 2.71%; inhibition of growth at 10 µM (TK-10): -23.4%; inhibition of growth at 10 µM (UO-31): -23.4%; inhibition of growth at 10 µM (PC-3): 0.46%; inhibition of growth at 10 µM (DU-145): -8.69%; inhibition of growth at 10 µM (MCF7): -8.69%; inhibition of growth at 10 µM (Hs-578T): -5.56%
